Experimental data taken from patent US20090299044A1 (priority 2006, published 2009).
Bridge positions count the residues as written; N and C are the ends. Square brackets hold non-standard residues; d marks the D form. Peptide text beside a SMILES is read from it. 1Nal = N[C@@H](Cc1cccc2ccccc12)C(=O)O

Legend:
human Kv1.1 (HEK293) = biological target: T1, human Kv1.1 (HEK293) (Homo sapiens, UniProt Q09470); experiment: cell-based
T1 construct: expressed in transfected cells; host or cells: HEK293

human Kv1.3 (CHO) = biological target: T2, human Kv1.3 (CHO) (Homo sapiens, UniProt P22001); experiment: cell-based
T2 construct: expressed in transfected cells; host or cells: CHO
T2 sequence (P22001 whole entry): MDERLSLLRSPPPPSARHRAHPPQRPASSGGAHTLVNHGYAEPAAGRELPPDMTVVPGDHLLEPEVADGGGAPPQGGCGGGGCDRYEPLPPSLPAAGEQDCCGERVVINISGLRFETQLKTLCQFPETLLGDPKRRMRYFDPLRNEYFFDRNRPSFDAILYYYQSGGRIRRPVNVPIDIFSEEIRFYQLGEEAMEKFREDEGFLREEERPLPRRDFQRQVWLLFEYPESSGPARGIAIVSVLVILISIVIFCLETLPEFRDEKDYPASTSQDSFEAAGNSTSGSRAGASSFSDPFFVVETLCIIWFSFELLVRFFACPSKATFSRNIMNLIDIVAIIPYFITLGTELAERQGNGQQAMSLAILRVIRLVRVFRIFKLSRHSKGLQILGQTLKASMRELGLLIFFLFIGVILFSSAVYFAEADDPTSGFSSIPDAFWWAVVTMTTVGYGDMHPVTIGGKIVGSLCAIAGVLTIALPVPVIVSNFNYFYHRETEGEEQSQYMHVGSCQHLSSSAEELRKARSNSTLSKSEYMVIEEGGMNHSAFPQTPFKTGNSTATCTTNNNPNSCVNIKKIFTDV

T1 sequence (Q09470 whole entry): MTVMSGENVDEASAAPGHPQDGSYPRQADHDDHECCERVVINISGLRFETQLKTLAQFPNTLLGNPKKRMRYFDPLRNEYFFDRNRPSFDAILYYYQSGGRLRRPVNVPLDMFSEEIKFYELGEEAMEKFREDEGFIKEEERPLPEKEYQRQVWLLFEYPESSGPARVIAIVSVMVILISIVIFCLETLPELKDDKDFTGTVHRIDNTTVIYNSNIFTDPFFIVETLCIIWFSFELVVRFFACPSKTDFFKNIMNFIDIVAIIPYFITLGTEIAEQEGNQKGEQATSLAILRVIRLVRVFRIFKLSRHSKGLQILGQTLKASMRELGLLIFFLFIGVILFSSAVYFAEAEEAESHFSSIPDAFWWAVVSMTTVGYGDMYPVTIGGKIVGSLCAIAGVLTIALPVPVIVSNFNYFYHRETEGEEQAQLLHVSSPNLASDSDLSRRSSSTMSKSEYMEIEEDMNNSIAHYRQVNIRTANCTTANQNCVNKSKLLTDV

| Structure (SMILES) | IC50 (human Kv1.1 (HEK293)) [pM] | IC50 (human Kv1.3 (CHO)) [pM] |
| --- | --- | --- |
| CC[C@H](C)[C@@H]1NC(=O)[C@H](CCCCN)NC(=O)[C@@H](NC(=O)[C@H](CCCCN)NC(=O)[C@@H](NC(=O)[C@H](CC(N)=O)NC(=O)[C@@H](NC(=O)[C@@H](NC(=O)[C@@H](NC(=O)CN)C(C)C)[C@@H](C)CC)[C@@H](C)CC)C(C)C)CSSC[C@@H]2NC(=O)[C@H](CCCCN)NC(=O)CNC(=O)[C@H](Cc3ccccc3)NC(=O)[C@H](CCCNC(=N)N)NC(=O)[C@H](CCSC)NC(=O)CNC(=O)[C@H](C)NC(=O)[C@H](CCCCN)NC(=O)[C@H](CCCCN)NC(=O)[C@@H]3CSSC[C@@H](C(=O)N[C@H](C(=O)N4CCC[C@H]4C(=O)N[C@@H](CCCCN)C(=O)O)[C@@H](C)O)NC(=O)[C@H](Cc4c[nH]cn4)NC(=O)[C@H](CSSC[C@H](NC(=O)[C@H](CCC(N)=O)NC(=O)[C@H](CCCNC(=N)N)NC(=O)[C@H](CO)NC1=O)C(=O)N[C@@H](CC(C)C)C(=O)N[C@@H](CCC(=O)O)C(=O)N[C@@H](CCCNC(=N)N)C(=O)N3)NC(=O)[C@H](CCCCN)NC(=O)CNC(=O)[C@H](CC(N)=O)NC(=O)[C@H](CCSC)NC2=O [P17R] (H-GVIINVKCKISRQCLERCKKAGMRFGKCMNGKCHCTPK-OH; disulfide 8-28, 14-33, 18-35) | < 1.52 | 10.4 |
| CC[C@H](C)[C@@H]1NC(=O)[C@H](CCCCN)NC(=O)[C@@H](NC(=O)[C@H](CCCCN)NC(=O)[C@@H](NC(=O)[C@H](CC(N)=O)NC(=O)[C@@H](NC(=O)[C@@H](NC(=O)[C@@H](NC(=O)CN)C(C)C)[C@@H](C)CC)[C@@H](C)CC)C(C)C)CSSC[C@@H]2NC(=O)[C@H](CCCCN)NC(=O)CNC(=O)[C@H](Cc3ccccc3)NC(=O)[C@H](CCCNC(=N)N)NC(=O)[C@H](CCSC)NC(=O)CNC(=O)[C@H](C)NC(=O)[C@H](CCCCN)NC(=O)[C@H](CCCCN)NC(=O)[C@@H]3CSSC[C@@H](C(=O)N[C@H](C(=O)N[C@@H](Cc4cccc5ccccc45)C(=O)N[C@@H](CCCCN)C(=O)O)[C@@H](C)O)NC(=O)[C@H](Cc4c[nH]cn4)NC(=O)[C@H](CSSC[C@H](NC(=O)[C@H](CCC(N)=O)NC(=O)[C@H](CCCNC(=N)N)NC(=O)[C@H](CO)NC1=O)C(=O)N[C@@H](CC(C)C)C(=O)N[C@@H](CCC(=O)O)C(=O)N1CCC[C@H]1C(=O)N3)NC(=O)[C@H](CCCCN)NC(=O)CNC(=O)[C@H](CC(N)=O)NC(=O)[C@H](CCSC)NC2=O [P37Nal] (H-GVIINVKCKISRQCLEPCKKAGMRFGKCMNGKCHCT[1Nal]K-OH; disulfide 8-28, 14-33, 18-35) | 6.74 | 70.8 |
| CC[C@H](C)[C@@H]1NC(=O)[C@H](CCCCN)NC(=O)[C@@H](NC(=O)[C@H](CCCCN)NC(=O)[C@@H](NC(=O)[C@H](CC(N)=O)NC(=O)[C@@H](NC(=O)[C@@H](NC(=O)[C@@H](NC(=O)CN)C(C)C)[C@@H](C)CC)[C@@H](C)CC)C(C)C)CSSC[C@@H]2NC(=O)[C@H](CCCCN)NC(=O)CNC(=O)[C@H](Cc3ccccc3)NC(=O)[C@H](CCCNC(=N)N)NC(=O)[C@H](CCSC)NC(=O)CNC(=O)[C@H](C)NC(=O)[C@H](CCCCN)NC(=O)[C@H](CCCCN)NC(=O)[C@@H]3CSSC[C@@H](C(=O)N[C@H](C(=O)N[C@@H](CCCNC(=N)N)C(=O)N[C@@H](CCCCN)C(=O)O)[C@@H](C)O)NC(=O)[C@H](Cc4c[nH]cn4)NC(=O)[C@H](CSSC[C@H](NC(=O)[C@H](CCC(N)=O)NC(=O)[C@H](CCCNC(=N)N)NC(=O)[C@H](CO)NC1=O)C(=O)N[C@@H](CC(C)C)C(=O)N[C@@H](CCC(=O)O)C(=O)N1CCC[C@H]1C(=O)N3)NC(=O)[C@H](CCCCN)NC(=O)CNC(=O)[C@H](CC(N)=O)NC(=O)[C@H](CCSC)NC2=O [P37R] (H-GVIINVKCKISRQCLEPCKKAGMRFGKCMNGKCHCTRK-OH; disulfide 8-28, 14-33, 18-35) | 2.01 | 13.3 |
| CC[C@H](C)[C@@H]1NC(=O)[C@H](CCCCN)NC(=O)[C@@H](NC(=O)[C@H](CCCCN)NC(=O)[C@@H](NC(=O)[C@H](CC(N)=O)NC(=O)[C@@H](NC(=O)[C@@H](NC(=O)[C@@H](NC(=O)CN)C(C)C)[C@@H](C)CC)[C@@H](C)CC)C(C)C)CSSC[C@@H]2NC(=O)[C@H](CCCCN)NC(=O)CNC(=O)[C@H](Cc3ccccc3)NC(=O)[C@H](CCCNC(=N)N)NC(=O)[C@H](CCSC)NC(=O)CNC(=O)[C@H](C)NC(=O)[C@H](CCCCN)NC(=O)[C@H](CCCCN)NC(=O)[C@@H]3CSSC[C@@H](C(=O)N[C@H](C(=O)N4CCC[C@H]4C(=O)N[C@@H](CCCCN)C(=O)O)[C@@H](C)O)NC(=O)[C@H](Cc4c[nH]cn4)NC(=O)[C@H](CSSC[C@H](NC(=O)[C@H](C)NC(=O)[C@H](CCCNC(=N)N)NC(=O)[C@H](CO)NC1=O)C(=O)N[C@@H](CC(C)C)C(=O)N[C@@H](CCC(=O)O)C(=O)N1CCC[C@H]1C(=O)N3)NC(=O)[C@H](CCCCN)NC(=O)CNC(=O)[C@H](CC(N)=O)NC(=O)[C@H](CCSC)NC2=O [Q13A] (H-GVIINVKCKISRACLEPCKKAGMRFGKCMNGKCHCTPK-OH; disulfide 8-28, 14-33, 18-35) | 21.7 | 249 |
| CC[C@H](C)[C@@H]1NC(=O)[C@H](CCCCN)NC(=O)[C@@H](NC(=O)[C@H](CCCCN)NC(=O)[C@@H](NC(=O)[C@H](CC(N)=O)NC(=O)[C@@H](NC(=O)[C@@H](NC(=O)[C@@H](NC(=O)CN)C(C)C)[C@@H](C)CC)[C@@H](C)CC)C(C)C)CSSC[C@@H]2NC(=O)[C@H](CCCCN)NC(=O)CNC(=O)[C@H](Cc3ccccc3)NC(=O)[C@H](CCCNC(=N)N)NC(=O)[C@H](CCSC)NC(=O)CNC(=O)[C@H](C)NC(=O)[C@H](CCCCN)NC(=O)[C@H](CCCCN)NC(=O)[C@@H]3CSSC[C@@H](C(=O)N[C@H](C(=O)N4CCC[C@H]4C(=O)N[C@@H](CCCCN)C(=O)O)[C@@H](C)O)NC(=O)[C@H](Cc4c[nH]cn4)NC(=O)[C@H](CSSC[C@H](NC(=O)[C@H](CCC(=O)O)NC(=O)[C@H](CCCNC(=N)N)NC(=O)[C@H](CO)NC1=O)C(=O)N[C@@H](CC(C)C)C(=O)N[C@@H](CCC(=O)O)C(=O)N1CCC[C@H]1C(=O)N3)NC(=O)[C@H](CCCCN)NC(=O)CNC(=O)[C@H](CC(N)=O)NC(=O)[C@H](CCSC)NC2=O [Q13E] (H-GVIINVKCKISRECLEPCKKAGMRFGKCMNGKCHCTPK-OH; disulfide 8-28, 14-33, 18-35) | 6.28 | 45.9 |
| CC[C@H](C)[C@@H]1NC(=O)[C@H](CCCCN)NC(=O)[C@@H](NC(=O)[C@H](CCCCN)NC(=O)[C@@H](NC(=O)[C@H](CC(N)=O)NC(=O)[C@@H](NC(=O)[C@@H](NC(=O)[C@@H](NC(=O)CN)C(C)C)[C@@H](C)CC)[C@@H](C)CC)C(C)C)CSSC[C@@H]2NC(=O)[C@H](CCCCN)NC(=O)CNC(=O)[C@H](Cc3ccccc3)NC(=O)[C@H](CCCNC(=N)N)NC(=O)[C@H](CCSC)NC(=O)CNC(=O)[C@H](C)NC(=O)[C@H](CCCCN)NC(=O)[C@H](CCCCN)NC(=O)[C@@H]3CSSC[C@@H](C(=O)N[C@H](C(=O)N4CCC[C@H]4C(=O)N[C@@H](CCCCN)C(=O)O)[C@@H](C)O)NC(=O)[C@H](Cc4c[nH]cn4)NC(=O)[C@H](CSSC[C@H](NC(=O)[C@H](CCCNC(=N)N)NC(=O)[C@H](CCCNC(=N)N)NC(=O)[C@H](CO)NC1=O)C(=O)N[C@@H](CC(C)C)C(=O)N[C@@H](CCC(=O)O)C(=O)N1CCC[C@H]1C(=O)N3)NC(=O)[C@H](CCCCN)NC(=O)CNC(=O)[C@H](CC(N)=O)NC(=O)[C@H](CCSC)NC2=O [Q13R] (H-GVIINVKCKISRRCLEPCKKAGMRFGKCMNGKCHCTPK-OH; disulfide 8-28, 14-33, 18-35) | < 1.52 | 15.3 |
| CC[C@H](C)[C@@H]1NC(=O)[C@H](CCCCN)NC(=O)[C@@H](NC(=O)[C@H](CCCCN)NC(=O)[C@@H](NC(=O)[C@H](CC(N)=O)NC(=O)[C@@H](NC(=O)[C@@H](NC(=O)[C@@H](NC(=O)CN)C(C)C)[C@@H](C)CC)[C@@H](C)CC)C(C)C)CSSC[C@@H]2NC(=O)[C@H](CCCCN)NC(=O)CNC(=O)[C@H](Cc3ccccc3)NC(=O)[C@H](CCCNC(=N)N)NC(=O)[C@H](CCSC)NC(=O)CNC(=O)[C@H](C)NC(=O)[C@H](CCCCN)NC(=O)[C@H](CCCCN)NC(=O)[C@@H]3CSSC[C@@H](C(=O)N[C@H](C(=O)N4CCC[C@H]4C(=O)N[C@@H](CCCCN)C(=O)O)[C@@H](C)O)NC(=O)[C@H](Cc4c[nH]cn4)NC(=O)[C@H](CSSC[C@H](NC(=O)[C@H](CCC(N)=O)NC(=O)[C@H](CCC(=O)O)NC(=O)[C@H](CO)NC1=O)C(=O)N[C@@H](CC(C)C)C(=O)N[C@@H](CCC(=O)O)C(=O)N1CCC[C@H]1C(=O)N3)NC(=O)[C@H](CCCCN)NC(=O)CNC(=O)[C@H](CC(N)=O)NC(=O)[C@H](CCSC)NC2=O [R12E] (H-GVIINVKCKISEQCLEPCKKAGMRFGKCMNGKCHCTPK-OH; disulfide 8-28, 14-33, 18-35) | 193 | 89.7 |
| CC[C@H](C)[C@@H]1NC(=O)[C@H](CCCCN)NC(=O)[C@@H](NC(=O)[C@H](CCCCN)NC(=O)[C@@H](NC(=O)[C@H](CC(N)=O)NC(=O)[C@@H](NC(=O)[C@@H](NC(=O)[C@@H](NC(=O)CN)C(C)C)[C@@H](C)CC)[C@@H](C)CC)C(C)C)CSSC[C@@H]2NC(=O)[C@H](CCCCN)NC(=O)CNC(=O)[C@H](Cc3ccccc3)NC(=O)[C@H](C)NC(=O)[C@H](CCSC)NC(=O)CNC(=O)[C@H](C)NC(=O)[C@H](CCCCN)NC(=O)[C@H](CCCCN)NC(=O)[C@@H]3CSSC[C@@H](C(=O)N[C@H](C(=O)N4CCC[C@H]4C(=O)N[C@@H](CCCCN)C(=O)O)[C@@H](C)O)NC(=O)[C@H](Cc4c[nH]cn4)NC(=O)[C@H](CSSC[C@H](NC(=O)[C@H](CCC(N)=O)NC(=O)[C@H](CCCNC(=N)N)NC(=O)[C@H](CO)NC1=O)C(=O)N[C@@H](CC(C)C)C(=O)N[C@@H](CCC(=O)O)C(=O)N1CCC[C@H]1C(=O)N3)NC(=O)[C@H](CCCCN)NC(=O)CNC(=O)[C@H](CC(N)=O)NC(=O)[C@H](CCSC)NC2=O [R24A] (H-GVIINVKCKISRQCLEPCKKAGMAFGKCMNGKCHCTPK-OH; disulfide 8-28, 14-33, 18-35) | 1890 | > 3000 |
